Patent US20210330611A1, “THERAPY FOR NEUROLOGICAL DISEASES/DISORDERS” (priority 2020, published 2021)

Key:
[1] = tested on: LPS-induced microglia activation; experiment: Image-based assay of LPS-induced microglia activation (HTS and dose response); type: cell-based, rat; conditions: primary HTS, 10 μM, LPS-stimulated primary microglia; for inhibition at 10 µM: Rattus norvegicus, Microglia, read-out: LPS % inhibition
[2] = tested on: fibrin- and LPS-induced microglia activation; experiment: cells; type: cell-based, rat; conditions: primary HTS, 10 μM
[3] = tested on: fibrin-induced microglia activation; experiment: Image-based assay of fibrin-induced microglia activation (HTS and dose response); type: cell-based, rat; conditions: primary HTS, 10 μM, fibrin-stimulated primary microglia; for inhibition at 10 µM: Rattus norvegicus, Microglia, read-out: Fibrin % inhibition
primary rat microglia [4] = experiment: Cell toxicity (dead cells, size <150 μm2) in coated fibrin (cFib) assay; conditions: primary HTS, 10 μM, fibrin assay, dead cells size <150 μm2;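 further: share of dead cells sized under 150 µm2 at 10 µM in fibrin-stimulated microglia HTS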
primary rat microglia [5] = experiment: Cell toxicity (dead cells, size <150 μm2) in LPS assay; conditions: primary HTS, 10 μM, LPS assay, dead cells size <150 μm2

| SMILES | LPS % inhibition [1] [%] | Quadrant (FIG. 5b) [2] | Fibrin % inhibition [3] [%] | Fibrin % cell toxicity (primary rat microglia [4]) [%] | LPS % cell toxicity (primary rat microglia [5]) [%] | inhibition at 10 µM [1] [%] | inhibition at 10 µM [3] [%] |
| --- | --- | --- | --- | --- | --- | --- | --- |
| Cl.NC1CCN(c2c(F)cc3c(=O)c(C(=O)O)cn(C4CC4)c3c2Cl)C1 (centres unmarked) [Clinafoxacin Hydrochloride] | 9 | Q4 | −22 | 0 | 0 |  |  |
| Oc1c(I)cc(Cl)c2cccnc12 [Clioquinol] |  | Q4 |  | 1 | 1 | 22 | -11 |
| O=P(O)(O)C(Cl)(Cl)P(=O)(O)O [Clodronate] |  | Q4 |  | 1 | 0 | 1 | -15 |
| CC(C)/N=c1\cc2n(-c3ccc(Cl)cc3)c3ccccc3nc-2cc1Nc1ccc(Cl)cc1 [Clofazimine] |  | Q4 |  | 1 | 0 | 15 | 23 |
| CCOC(=O)C(C)(C)Oc1ccc(Cl)cc1 [Clofibrate] |  | Q4 |  | 0 | 1 | 18 | -20 |
| CC(C)(Oc1ccc(Cl)cc1)C(=O)O [Clofibric Acid] |  | Q4 |  | 1 | 0 | 15 | -27 |
| CC(C)(C)CC(C)(C)c1ccc(O)c(Cc2ccc(Cl)cc2Cl)c1 [Clofoctol] |  | Q4 |  | 0 | 0 | 2 | -26 |
| O=C1CN=C(c2ccccc2Cl)c2cc([N+](=O)[O-])ccc2N1 [Clonazepam] |  | Q4 |  | 0 | 0 | -9 | -12 |
| Cc1nc(C)c(Cl)c(O)c1Cl [Clopidol] |  | Q4 |  | 1 | 0 | 9 | -41 |
| Cc1cc(C(C#N)c2ccc(Cl)cc2)c(Cl)cc1NC(=O)c1cc(I)cc(I)c1O (centres unmarked) [Closantel] |  | Q4 |  | 0 | 0 | 5 | -9 |
| Cc1onc(-c2ccccc2Cl)c1C(=O)N[C@@H]1C(=O)N2[C@@H]1SC(C)(C)[C@@H]2C(=O)O [Cloxacillin] |  | Q4 |  | 1 | 1 | 17 | -13 |
| Oc1ccc(Cl)c2cccnc12 [Cloxyquin] |  | Q4 |  | 0 | 0 | 18 | -4 |
| C=C[C@@]1(C)CC(=O)[C@]2(O)[C@@]3(C)[C@@H](O)CCC(C)(C)[C@@H]3[C@H](O)[C@H](OC(C)=O)[C@@]2(C)O1 [Colforsin] |  | Q4 |  | 1 | 0 | 26 | 46 |
